Measured values as given in publication PMC8597046, “Use of Mixture Dosing and Nonlinear Mixed Effect Modeling of Eight Environmental Contaminants in Rabbits to Improve Extrapolation Value of Toxicokinetic Data” (Environmental Health Perspectives, 2021).

Experiments:
[1] = TK assay, intravenous mixture dosing: serum concentrations and noncompartmental analysis (sparse data); conditions: for Serum concentration: IV
Protocol: (§1) The experiment was carried out on thirty 10-wk old female New Zealand white rabbits (INRA 1777 line) weighing 2.37±0.14kg . […] Blood samples were taken at the designated time points post IV and oral administration: 15 min, 30 min, 1 h, 2 h, 4 h, 8 h, 12 h, 24 h, 3 d, 7 d, and 28 d from groups of 3 or 6 rabbits at each sampling time. Each rabbit was sampled 3 times and 3 rabbits were sampled at each sampling time, except at 30 min post administration, when 6 samples were collected to provide a sufficient blood volume for assaying the compounds. The doses and assay time points were selected to allow the calculation of TK parameters (Table 1) based on preliminary TK data. Residual concentrations of the compounds, and their possible evolution over time, were determined by sampling six entirely untreated rabbits during the TK study on the day of drug administrations, then 14 d and 28 d later.
(§2) The volume administered was adjusted to the animal’s body weight (BW) recorded the day before.
(§3) Intravenous administrations were performed via an indwelling catheter (22G Terumo, 0.9×25mm ) just after its insertion into an ear vein. […] For oral administrations, the mixture of all compounds ( 4mL/kg ) was deposited directly in the mouth of rabbits using a catheter (22G BD Insyte 22G, 0.9×25mm ). Prior to the study, the rabbits had been trained to gradually swallow water and then corn oil.
(§4) Blood samples were collected from the auricular artery using a 20 G needle ( 0.9×25mm ) and a dry tube. The first two blood samples were 8–10mL in volume, whereas a large volume (about 20mL ) was obtained antemortem immediately after electrical stunning (95LX rabbit stunner; Burdis), followed by exsanguination.
(§5) Serum concentration-time profiles of the different compounds were first analyzed using a noncompartmental approach (NCA) involving a sparse data option. Sparse data methodology consists of calculating TK parameters based on the mean profile of all the subjects in the dataset and is appropriate when a rich data series cannot be obtained, as in the present experiment ([FDA 1999]). The area under the concentration time curve ( AUC0−tlast ) and the area under the first moment curve ( AUMC0−tlast ) from dosing time ( t=0 ) to the time of the last measurable concentration were calculated using the linear trapezoidal rule after IV and oral dosing. The area under the serum concentration time curve from dosing time to infinity ( AUC0−inf ) was obtained by adding to AUC0−tlast the area extrapolated from the time of the last measurable concentration to infinity by dividing the last quantifiable serum concentration by the slope of the terminal phase ( λZ ), as estimated by linear regression using the best fit option of Phoenix®.
(§6) The clearance (CL) and apparent clearance (CL_F) were respectively estimated after IV and oral administrations by dividing the administered dose by the AUC0−inf calculated for each analyte.
(§7) The terminal half-life (HL) was estimated with Equation 1: (1) HL=0.69315/λZ where λz is the slope of the terminal phase.
The mean residence time (MRT) was estimated using Equation 3: (3) MRT=AUMCiv0−tlast /AUCiv0−tlast , where AUCMiv0−tlast and AUCiv0−tlast are the values of AUMC0−tlast and AUC0−tlast obtained after IV dosing.
The steady-state volume of distribution ( VSS ) was estimated using Equation 4: (4) VSS=CL×MRT, with CL and MRT as defined above.

[2] = TK assay, oral mixture dosing: serum concentrations and noncompartmental analysis (sparse data); conditions: for Serum concentration: oral
Protocol: as §1, §2, §3, §4, §5, §6, §7
The oral bioavailability (F) was estimated using Equation 2: (2) F=AUCvo0−tlast×Doseiv/AUCiv0−tlast×Dosevo, where AUCiv0−tlast and AUCvo0-tlast are the values of AUC0−tlast obtained after IV and oral dosing, respectively, and Doseiv and Dosevo are the IV and oral doses.

[3] = Estimation of loading and daily maintenance doses and NLME model simulations; set-up: species or system female rabbits; conditions: oral
Protocol: The ultimate goal of this TK investigation was to compute a dosage regimen that allowed targeted steady-state serum concentrations to be attained rapidly for a planned TK/TD trial on the reprotoxic effect of a mixture of environmental contaminants in female rabbits. […] With that in mind, the loading and the daily maintenance doses of each compound were evaluated using Equations 12 and 13, respectively.
This risk was also the reason why the NLME model was employed to simulate the time development of the amounts of compounds in the central and peripheral compartments following administration of the daily maintenance dose of each compound over the same duration.
The loading and maintenance doses computed to ensure a nominal CSS of 1 ng/mL were scaled to determine the doses to be administrated by oral route to female rabbits to maintain the targeted CSS .

[4] = oral mixture dosing, NCA, n=12, MEHP after oral DEHP

Work on `O=S(=O)(c1ccc(O)cc1)c1ccc(O)cc1` [BPS, bisphenol S] yielded a CL ([1]; IV mixture dosing, NCA, n=12) of 72.5 mL/min/kg, an MRT ([1]; IV mixture dosing, NCA, n=12) of 1.26 h and a Serum concentration ([1]; rabbit 1, 0.30 h) of 2080 nM. It also gave a Serum concentration ([1]; rabbit 1, 4.38 h) of 25 nM, a Serum concentration ([1]; rabbit 1, 24.03 h) of less than 4 nM and a Serum concentration ([1]; rabbit 2, 0.28 h) of 4060 nM. It also gave a Serum concentration ([1]; rabbit 2, 4.05 h) of 29 nM, a Serum concentration ([1]; rabbit 3, 0.35 h) of 3380 nM and a Serum concentration ([1]; rabbit 3, 4.05 h) of 65 nM. The Serum concentration ([1]; rabbit 4, 0.62 h) was 1030 nM, the Serum concentration ([1]; rabbit 4, 8.33 h) was 22 nM and the Serum concentration ([1]; rabbit 4, 72.00 h) was less than 4 nM. For the same compound, the Serum concentration ([1]; rabbit 5, 0.75 h) was 1230 nM, the Serum concentration ([1]; rabbit 5, 8.62 h) was 15 nM and the Serum concentration ([1]; rabbit 5, 72.03 h) was less than 4 nM. It also gave a Serum concentration ([1]; rabbit 6, 0.57 h) of 1840 nM, a Serum concentration ([1]; rabbit 6, 7.98 h) of 22 nM and a Serum concentration ([1]; rabbit 6, 71.97 h) of less than 4 nM. The Serum concentration ([1]; rabbit 7, 1.13 h) was 370 nM, the Serum concentration ([1]; rabbit 7, 11.98 h) was 8.5 nM and the Serum concentration ([1]; rabbit 8, 1.12 h) was 290 nM. For the same compound, the Serum concentration ([1]; rabbit 8, 12.02 h) was 6 nM, the Serum concentration ([1]; rabbit 9, 1.03 h) was 410 nM and the Serum concentration ([1]; rabbit 9, 11.97 h) was 7.4 nM. For the same compound, the Serum concentration ([1]; rabbit 11, 2.08 h) was 110 nM, the Serum concentration ([1]; rabbit 12, 2.08 h) was 200 nM and the “AUC0−inf” value ([1]; serum, IV mixture dosing, NCA, n=12) was 2.41 µM·h. The Cmax ([1]; serum, IV mixture dosing, NCA, n=12, doses in Table 2 r3, BPSG after BPS dosing) was 4060 nM, the MRT [2, 4] was 6.54 h and the Tmax [2, 4] was 0.23 h. For the same compound, the Serum concentration ([2]; rabbit 13, 4.30 h, MEHP after oral DEHP) was 140 nM, the Serum concentration ([2]; rabbit 14, 0.37 h, MEHP after oral DEHP) was 1550 nM and the Serum concentration ([2]; rabbit 14, 4.17 h, MEHP after oral DEHP) was 130 nM. It also gave a Serum concentration ([2]; rabbit 15, 4.05 h, MEHP after oral DEHP) of 110 nM, a Serum concentration ([2]; rabbit 15, 23.98 h, MEHP after oral DEHP) of 12 nM and a Serum concentration ([2]; rabbit 16, 0.55 h, MEHP after oral DEHP) of 320 nM. The Serum concentration ([2]; rabbit 16, 8.22 h, MEHP after oral DEHP) was 50 nM, the Serum concentration ([2]; rabbit 16, 72.00 h, MEHP after oral DEHP) was less than 4 nM and the Serum concentration ([2]; rabbit 17, 0.53 h, MEHP after oral DEHP) was 58 nM. It also gave a Serum concentration ([2]; rabbit 17, 8.48 h, MEHP after oral DEHP) of 121 nM, a Serum concentration ([2]; rabbit 17, 72.00 h, MEHP after oral DEHP) of less than 4 nM and a Serum concentration ([2]; rabbit 18, 0.55 h, MEHP after oral DEHP) of 940 nM. The Serum concentration ([2]; rabbit 18, 8.00 h, MEHP after oral DEHP) was 49 nM, the Serum concentration ([2]; rabbit 18, 71.96 h, MEHP after oral DEHP) was less than 4 nM and the Serum concentration ([2]; rabbit 19, 1.02 h, MEHP after oral DEHP) was 190 nM. It also gave a Serum concentration ([2]; rabbit 19, 12.00 h, MEHP after oral DEHP) of 87 nM, a Serum concentration ([2]; rabbit 20, 1.07 h, MEHP after oral DEHP) of 150 nM and a Serum concentration ([2]; rabbit 20, 12.00 h, MEHP after oral DEHP) of 51 nM. It also gave a Serum concentration ([2]; rabbit 21, 1.08 h, MEHP after oral DEHP) of 97 nM, a Serum concentration ([2]; rabbit 21, 12.00 h, MEHP after oral DEHP) of 100 nM and a Serum concentration ([2]; rabbit 22, 2.00 h, MEHP after oral DEHP) of 120 nM. For the same compound, the Serum concentration ([2]; rabbit 23, 2.00 h, MEHP after oral DEHP) was 88 nM, the Serum concentration ([2]; rabbit 24, 2.22 h, MEHP after oral DEHP) was 110 nM and the “AUC0−inf” value ([2]; serum, oral mixture dosing, NCA, n=12, MEHP after oral DEHP) was 3.38 µM·h. For the same compound, the Cmax ([2]; serum, oral mixture dosing, NCA, n=12, doses in Table 3 r3, MEHP measured after oral DEHP, BPSG after BPS) was 6930 nM, the Computed maintenance dose ([3]; daily, scaled to the targeted CSS of Table 6) was 0.122 mg/kg and the Computed loading dose ([3]; scaled to the targeted CSS of Table 6) was 0.032 mg/kg. It also gave a Daily maintenance dose ([3]; to maintain serum concentration of 1 ng/mL, daily CL×Css/F, DEHP dose for MEHP in serum) of 0.122 mg/kg and a Loading dose ([3]; to rapidly attain serum concentration of 1 ng/mL, Vss×Css/F, DEHP dose for MEHP in serum) of 0.032 mg/kg.
